The source made the active and inactive calls.
Tests used:
[1] = biological target: Tyrosine-protein kinase Lck (Homo sapiens, UniProt P06239); assay type: functional;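 note: lck was assayed as one member of a kinase panel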
[2] = biological target: MAP kinase-activated protein kinase 5 (Homo sapiens, UniProt Q8IW41); assay type: functional;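 note: measured as one member of a kinome panel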
[3] = biological target: Serine/threonine-protein kinase pim-3 (Homo sapiens, UniProt Q86V86); assay type: functional;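 note: value obtained as one member of a broad kinase panel profiling effort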
[4] = biological target: Mitogen-activated protein kinase 12 (Homo sapiens, UniProt P53778); assay type: functional;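 note: measured as one member of a kinome-wide kinase profiling panel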
Chain of Mitogen-activated protein kinase 12 (P53778 whole entry): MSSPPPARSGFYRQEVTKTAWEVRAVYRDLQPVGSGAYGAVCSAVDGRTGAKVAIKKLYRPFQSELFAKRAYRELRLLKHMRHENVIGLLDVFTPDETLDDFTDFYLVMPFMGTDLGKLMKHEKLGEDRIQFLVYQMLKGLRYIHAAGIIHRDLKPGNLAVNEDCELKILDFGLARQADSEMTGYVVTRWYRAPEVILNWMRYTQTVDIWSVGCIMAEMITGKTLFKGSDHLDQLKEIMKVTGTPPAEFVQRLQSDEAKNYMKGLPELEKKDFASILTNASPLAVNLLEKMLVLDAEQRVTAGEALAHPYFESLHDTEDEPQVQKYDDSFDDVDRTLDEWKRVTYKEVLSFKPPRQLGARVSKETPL

Exodeoxyribonuclease V = biological target: T1, Exodeoxyribonuclease V (Escherichia coli (strain K12), UniProt P04993+P07648+P08394); assay: E. coli RecBCD inhibitors, dose response, counter-screen for AddAB inhibitor project, absorbance, V66 E. coli, mutant T4 phage (AID 492957); assay type: functional, cell-based, Escherichia coli str. K-12 substr. MG1655
T1 sequence (P04993 whole entry): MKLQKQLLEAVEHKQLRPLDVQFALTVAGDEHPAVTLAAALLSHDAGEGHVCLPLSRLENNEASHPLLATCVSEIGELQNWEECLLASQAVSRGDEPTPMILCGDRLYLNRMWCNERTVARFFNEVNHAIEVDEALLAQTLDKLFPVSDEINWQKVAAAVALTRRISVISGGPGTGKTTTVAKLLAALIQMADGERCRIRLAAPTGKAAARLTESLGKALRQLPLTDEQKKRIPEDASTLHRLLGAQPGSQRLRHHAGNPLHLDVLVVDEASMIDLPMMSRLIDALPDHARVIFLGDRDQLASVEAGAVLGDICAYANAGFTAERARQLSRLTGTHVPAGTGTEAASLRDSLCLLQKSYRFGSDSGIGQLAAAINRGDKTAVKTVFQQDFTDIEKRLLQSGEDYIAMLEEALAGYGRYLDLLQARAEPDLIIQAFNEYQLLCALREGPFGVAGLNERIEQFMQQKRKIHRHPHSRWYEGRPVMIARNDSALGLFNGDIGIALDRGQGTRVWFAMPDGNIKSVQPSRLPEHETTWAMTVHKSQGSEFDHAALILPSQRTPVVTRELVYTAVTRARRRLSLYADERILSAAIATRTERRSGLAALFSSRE
T1 sequence (P07648 whole entry): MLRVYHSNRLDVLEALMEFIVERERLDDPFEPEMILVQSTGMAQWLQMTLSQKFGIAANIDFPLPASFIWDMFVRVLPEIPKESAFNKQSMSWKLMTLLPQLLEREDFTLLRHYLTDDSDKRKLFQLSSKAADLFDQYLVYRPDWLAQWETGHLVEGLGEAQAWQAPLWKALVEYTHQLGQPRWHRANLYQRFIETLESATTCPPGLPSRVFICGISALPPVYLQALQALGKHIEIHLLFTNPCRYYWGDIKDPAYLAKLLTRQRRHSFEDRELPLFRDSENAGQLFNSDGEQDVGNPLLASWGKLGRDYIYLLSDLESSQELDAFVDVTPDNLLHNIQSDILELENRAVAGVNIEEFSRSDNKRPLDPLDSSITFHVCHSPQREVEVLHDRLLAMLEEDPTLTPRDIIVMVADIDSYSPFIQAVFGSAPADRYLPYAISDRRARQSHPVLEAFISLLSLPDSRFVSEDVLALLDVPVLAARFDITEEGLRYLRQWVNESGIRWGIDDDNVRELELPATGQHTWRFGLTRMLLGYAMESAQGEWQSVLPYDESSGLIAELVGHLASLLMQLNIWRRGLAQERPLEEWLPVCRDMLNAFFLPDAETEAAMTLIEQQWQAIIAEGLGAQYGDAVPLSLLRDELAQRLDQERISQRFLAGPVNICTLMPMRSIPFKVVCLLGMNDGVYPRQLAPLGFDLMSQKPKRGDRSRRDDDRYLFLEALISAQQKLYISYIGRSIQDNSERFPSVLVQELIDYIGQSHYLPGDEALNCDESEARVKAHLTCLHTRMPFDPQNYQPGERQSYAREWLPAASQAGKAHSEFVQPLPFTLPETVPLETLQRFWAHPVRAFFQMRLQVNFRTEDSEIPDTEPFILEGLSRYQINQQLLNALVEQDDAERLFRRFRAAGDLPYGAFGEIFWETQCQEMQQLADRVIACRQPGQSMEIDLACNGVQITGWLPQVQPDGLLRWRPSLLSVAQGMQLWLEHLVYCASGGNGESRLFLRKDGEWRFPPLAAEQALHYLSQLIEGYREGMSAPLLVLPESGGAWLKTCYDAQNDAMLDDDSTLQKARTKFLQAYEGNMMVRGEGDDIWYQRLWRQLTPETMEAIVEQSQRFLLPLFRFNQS
T1 sequence (P08394 whole entry): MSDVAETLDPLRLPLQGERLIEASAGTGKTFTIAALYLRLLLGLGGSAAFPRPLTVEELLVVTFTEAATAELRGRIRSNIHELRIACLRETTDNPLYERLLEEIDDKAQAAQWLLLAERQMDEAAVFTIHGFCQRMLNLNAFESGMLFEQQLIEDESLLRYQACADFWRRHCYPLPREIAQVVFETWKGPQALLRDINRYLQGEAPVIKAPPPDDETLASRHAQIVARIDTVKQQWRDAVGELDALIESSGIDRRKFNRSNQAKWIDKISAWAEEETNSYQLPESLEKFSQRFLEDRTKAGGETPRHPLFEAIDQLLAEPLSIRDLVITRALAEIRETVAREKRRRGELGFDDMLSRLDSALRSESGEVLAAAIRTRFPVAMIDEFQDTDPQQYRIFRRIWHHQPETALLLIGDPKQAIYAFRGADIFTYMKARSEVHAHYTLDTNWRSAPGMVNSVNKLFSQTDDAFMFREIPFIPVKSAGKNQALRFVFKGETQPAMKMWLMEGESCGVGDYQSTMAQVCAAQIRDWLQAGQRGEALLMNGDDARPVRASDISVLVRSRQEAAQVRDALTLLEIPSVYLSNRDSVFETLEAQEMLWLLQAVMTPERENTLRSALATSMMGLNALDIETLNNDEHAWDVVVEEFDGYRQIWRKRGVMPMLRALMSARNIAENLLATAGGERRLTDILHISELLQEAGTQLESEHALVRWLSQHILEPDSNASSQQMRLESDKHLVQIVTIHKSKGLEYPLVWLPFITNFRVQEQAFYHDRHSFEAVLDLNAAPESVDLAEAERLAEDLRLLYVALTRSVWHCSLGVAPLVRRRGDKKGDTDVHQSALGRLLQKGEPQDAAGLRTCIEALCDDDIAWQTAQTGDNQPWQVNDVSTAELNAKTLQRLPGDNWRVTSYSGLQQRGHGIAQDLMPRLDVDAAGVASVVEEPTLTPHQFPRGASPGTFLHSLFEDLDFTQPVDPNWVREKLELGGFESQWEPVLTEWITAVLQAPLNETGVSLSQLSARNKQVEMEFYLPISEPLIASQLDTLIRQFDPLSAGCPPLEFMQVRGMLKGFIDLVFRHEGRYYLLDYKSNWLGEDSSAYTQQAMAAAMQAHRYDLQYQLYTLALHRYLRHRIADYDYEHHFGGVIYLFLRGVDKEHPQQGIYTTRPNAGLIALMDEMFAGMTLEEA

Chain of MAP kinase-activated protein kinase 5 (Q8IW41 whole entry): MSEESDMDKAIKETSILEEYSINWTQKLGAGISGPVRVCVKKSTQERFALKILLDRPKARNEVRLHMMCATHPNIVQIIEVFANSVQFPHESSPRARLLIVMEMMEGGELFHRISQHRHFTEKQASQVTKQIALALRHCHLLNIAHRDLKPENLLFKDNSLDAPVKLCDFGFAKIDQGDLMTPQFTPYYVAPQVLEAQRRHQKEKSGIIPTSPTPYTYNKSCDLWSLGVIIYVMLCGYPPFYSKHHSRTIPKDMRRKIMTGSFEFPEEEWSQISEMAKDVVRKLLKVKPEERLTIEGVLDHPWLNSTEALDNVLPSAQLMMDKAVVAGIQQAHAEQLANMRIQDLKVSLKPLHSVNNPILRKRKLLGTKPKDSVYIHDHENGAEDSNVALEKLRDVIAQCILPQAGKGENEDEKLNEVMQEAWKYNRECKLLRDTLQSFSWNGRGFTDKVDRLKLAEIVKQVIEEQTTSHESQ
Chain of Tyrosine-protein kinase Lck (P06239 whole entry): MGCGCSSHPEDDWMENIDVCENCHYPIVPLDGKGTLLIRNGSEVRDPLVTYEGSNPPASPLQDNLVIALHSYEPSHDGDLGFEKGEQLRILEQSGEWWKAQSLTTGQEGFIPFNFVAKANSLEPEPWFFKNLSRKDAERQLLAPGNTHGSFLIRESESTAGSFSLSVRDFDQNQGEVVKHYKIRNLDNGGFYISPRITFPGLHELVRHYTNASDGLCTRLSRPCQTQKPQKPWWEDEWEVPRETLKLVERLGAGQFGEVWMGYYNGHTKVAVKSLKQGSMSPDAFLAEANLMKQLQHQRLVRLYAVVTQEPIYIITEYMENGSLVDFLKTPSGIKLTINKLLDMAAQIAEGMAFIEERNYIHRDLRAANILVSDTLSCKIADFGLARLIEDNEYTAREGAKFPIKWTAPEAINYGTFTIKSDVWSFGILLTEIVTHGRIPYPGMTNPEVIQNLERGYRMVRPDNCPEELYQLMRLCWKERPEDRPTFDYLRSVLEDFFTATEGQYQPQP

Structure (SMILES)	Ki [1]	Ki [2]	Ki [3]	Ki [4]	IC50 (Exodeoxyribonuclease V)
OC1CCC(Nc2cc(Cl)nc(-c3c[nH]c4ncccc34)n2)CC1 (stereo not given)	> 3160 nM (inactive)	> 1580 nM (inactive)	1260 nM (active)	1580 nM (active)	
COCC/N=c1\scc(-c2cccs2)n1/N=C/c1ccc(O)c(O)c1O					> 119000 nM (inactive)

Source: ChEMBL document CHEMBL1201862, “PubChem BioAssay data set” (2004)
